Patent US9931324B2, “Indolizine derivatives and their use in neurodegenerative diseases” (Merck Patent GmbH, priority 2014, dated 2018)

biological target: T1, P2X7 (Homo sapiens, UniProt Q99572); assay: Pore permeation assay (YO PRO dye uptake, BzATP-induced); assay type: cell-based; design: expressed in transfected cells; host or cells: HEK293; conditions: HEK293 transfected with human P2X7 receptor, BzATP 10 uM, read-out: hP2X7 IC50
T1 sequence (Q99572 1-595): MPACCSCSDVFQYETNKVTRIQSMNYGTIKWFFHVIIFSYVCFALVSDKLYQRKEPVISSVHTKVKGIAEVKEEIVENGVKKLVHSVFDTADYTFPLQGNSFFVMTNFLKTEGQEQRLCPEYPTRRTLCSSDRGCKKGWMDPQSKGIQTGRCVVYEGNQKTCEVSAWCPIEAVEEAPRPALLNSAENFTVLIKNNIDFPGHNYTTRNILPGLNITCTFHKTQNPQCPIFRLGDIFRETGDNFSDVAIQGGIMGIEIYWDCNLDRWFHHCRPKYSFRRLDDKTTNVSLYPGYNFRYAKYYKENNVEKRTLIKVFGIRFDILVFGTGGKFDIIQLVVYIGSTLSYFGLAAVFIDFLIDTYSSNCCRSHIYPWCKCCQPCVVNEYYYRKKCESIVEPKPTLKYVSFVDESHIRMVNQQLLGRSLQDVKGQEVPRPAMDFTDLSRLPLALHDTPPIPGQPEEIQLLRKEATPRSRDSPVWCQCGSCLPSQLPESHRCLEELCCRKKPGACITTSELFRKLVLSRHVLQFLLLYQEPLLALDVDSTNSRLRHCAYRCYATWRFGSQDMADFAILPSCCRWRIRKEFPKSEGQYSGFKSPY
Experimental: Agonist-induced pore formation was determined by measuring cellular uptake of YO PRO fluorescence dye in HEK293 transfected with human P2X7 receptor. A HEK293 cell over expressing human P2X7 was harvested using HQTase reagent to detach the cells from T75 cm flask. The harvested cells are centrifuged @1200 rpm for 5 min at room temperature. The viability of cells was determined by Trypan blue dye and the cells are plated @10,000 cell/well in 50 ul volume in a 384W BD Poly lysine coated plate and incubated overnight at 37 C. After overnight incubation, the culture medium was replaced with 35 ul/well assay buffer (5 mM KCl, 0.1 mM CaCl2, 5 mM Glucose, 10 mM HEPES buffer pH7.4 containing 125 mM NaCl. The serial dilution of compounds was performed using Bravo liquid handling instrument and the compounds were added using Bravo to the cell assay plate starting at 2.5 uM with three dilutions for 10 points. The positive control inhibitor compound was added to column 23. The plate was shaken slowly on a plate shaker for 10 seconds. The cells were incubated with the compound for 20 minutes at room temperature. After the incubation period, YO PRO dye (1 uM) along with BzATP (10 uM) were added to cells at 10 ul/well. The plate was centrifuged at 1000 rpm for 5 seconds and incubated at room temperature for 30 minutes. The uptake of YO PRO dye into the cells was measured using Envision Fluorescence plate reader instrument (Perkin Elmer).

| Structure (SMILES) | IC50 [nM] |
| --- | --- |
| COCCc1cc(C(=O)NCC2(O)CCCC(F)(F)C2)c2c(Cl)cccn12 (stereo in doubt) [Compound 63, 8-Chloro-3-(2-methoxy-ethyl)-indolizine-1-carboxylic Acid ((S)-3,3-difluoro-1-hydroxy-cyclohexylmethyl)-amide] | < 10 |
| COCCc1cc(C(=O)NCC2CCCCCC2)c2c(Cl)cccn12 [Compound 1, 8-chloro-N-(cycloheptylmethyl)-3-(2-methoxyethyl)indolizine-1-Carboxamide] | 10 to 100 |
| COCCc1cc(C(=O)NCC2CCCC3(CC3)C2)c2c(Cl)cccn12 (centres unmarked) [Compound 2, 8-chloro-3-(2-methoxyethyl)-N-(spiro[2.5]octan-5-ylmethyl)indolizine-1-carboxamide] | < 10 |
| COCCc1cc(C(=O)NCc2cccc(C(F)(F)F)c2Cl)c2c(Cl)cccn12 [Compound 3, 8-chloro-N-(2-chloro-3-(trifluoromethyl)benzyl)-3-(2-methoxyethyl) indolizine-1-carboxamide] | 101 to 500 |
| O=C(NCC1(O)CCCC(C(F)(F)F)C1)c1cc(C2CCC2)n2cccc(Cl)c12 (centres unmarked) [Compound 4, 8-chloro-3-cyclobutyl-N-((1-hydroxy-3-(trifluoromethyl)cyclohexyl)methyl) indolizine-1-carboxamide] | > 1000 |
| CC1CC(O)(CNC(=O)c2cc(C3CCC3)n3cccc(Cl)c23)CCC1(F)F (centres unmarked) [Compound 7, 8-chloro-3-cyclobutyl-N-((4,4-difluoro-1-hydroxy-3-methylcyclohexyl)methyl) indolizine-1-carboxamide] | 101 to 500 |
| CCOCCc1cc(C(=O)NCC2CCC(F)(F)CC2)c2c(Cl)cccn12 [Compound 19, 8-Chloro-3-(2-ethoxy-ethyl)-indolizine-1-carboxylic Acid (4,4-difluoro-cyclohexylmethyl)-amide] | 101 to 500 |
| O=C(NCC1(O)CCCC(F)(F)C1)c1cc(C2CCC2)n2cccc(Cl)c12 (centres unmarked) [Compound 20, 8-chloro-3-cyclobutyl-N-((3,3-difluoro-1-hydroxycyclohexyl)methyl) indolizine-1-carboxamide] | 10 to 100 |
| COCCc1cc(C(=O)NCC2CCC(F)(F)CC2)c2c(C)cccn12 [Compound 25, 3-(2-Methoxy-ethyl)-8-methyl-indolizine-1-carboxylic Acid (4,4-difluoro-cyclohexylmethyl)-amide] | 101 to 500 |
| COCCc1cc(C(=O)NCC2CCC(F)(F)CC2)c2c(C(F)(F)F)cccn12 [Compound 26, 3-(2-Methoxy-ethyl)-8-trifluoromethyl-indolizine-1-carboxylic Acid (4,4-difluorocyclohexylmethyl)-amide] | 101 to 500 |
| C[C@@H]1CCC[C@](O)(CNC(=O)c2cc(C3CCOCC3)n3cccc(Cl)c23)C1 [Compound 27, 8-chloro-N-(((1R,3R)-1-hydroxy-3-methylcyclohexyl)methyl)-3-(tetrahydro-2H-pyran-4-yl)indolizine-1-carboxamide] | 10 to 100 |
| O=C(NCC1(O)CCCC(C(F)(F)F)C1)c1cc(C2CCOCC2)n2cccc(Cl)c12 (centres unmarked) [Compound 28, 8-chloro-N-((1-hydroxy-3-(trifluoromethyl)cyclohexyl)methyl)-3-(tetrahydro-2H-pyran-4-yl)indolizine-1-carboxamide] | 500 to 999 |
| O=C(NCC1CCC(F)(F)CC1)c1cc(C2CCOCC2)n2cccc(Cl)c12 [Compound 33, 8-chloro-N-((4,4-difluorocyclohexyl)methyl)-3-(tetrahydro-2H-pyran-4-yl)indolizine-1-carboxamide] | 10 to 100 |
| O=C(NCC1CCC(F)(F)CC1)c1cc(CCF)n2cccc(Cl)c12 [Compound 34, 8-Chloro-3-(2-fluoro-ethyl)-indolizine-1-carboxylic Acid (4,4-difluoro-cyclohexylmethyl)-amide] | 10 to 100 |
| C[C@@H]1CCC[C@](O)(CNC(=O)c2cc(C3CCOC3)n3cccc(Cl)c23)C1 (stereo partly drawn) [Compound 38, 8-chloro-N-(((1R,3R)-1-hydroxy-3-methylcyclohexyl)methyl)-3-(tetrahydrofuran-3-yl)indolizine-1-carboxamide] | 10 to 100 |
| O=C(NCC1CCC(F)(F)CC1)c1ccn2cccc(Cl)c12 [Compound 42] | 101 to 500 |
| CC1CC(O)(CNC(=O)c2cc(C3CCOC3)n3cccc(Cl)c23)CCC1(F)F (centres unmarked) [Compound 44, 8-chloro-N-((4,4-difluoro-1-hydroxy-3-methylcyclohexyl)methyl)-3-(tetrahydrofuran-3-yl)indolizine-1-carboxamide] | 101 to 500 |
| COCCc1cc(C(=O)NCC2(O)CCC(F)(F)CC2)c2c(C)cccn12 [Compound 46, 3-(2-Methoxy-ethyl)-8-methyl-indolizine-1-carboxylic Acid (4,4-difluoro-1-hydroxy-cyclohexylmethyl)-amide] | 101 to 500 |
| COCCc1cc(C(=O)NCC2(O)CCC(F)(F)CC2)c2c(C(F)(F)F)cccn12 [Compound 49, 3-(2-Methoxy-ethyl)-8-trifluoromethyl-indolizine-1-carboxylic Acid (4,4-difluoro-1-hydroxy cyclohexylmethyl)-amide] | 101 to 500 |
| O=C(NCC1CCC(F)(F)CC1)c1cc(C2(O)CCOC2)n2cccc(Cl)c12 (centres unmarked) [Compound 55, 8-chloro-N-((4,4-difluorocyclohexyl)methyl)-3-(3-hydroxytetrahydrofuran-3-yl)indolizine-1-carboxamide] | 101 to 500 |
| O=C(NCC1(O)CCC(F)(F)CC1)c1cc(C2CCOCC2)n2cccc(Cl)c12 [Compound 56, 8-chloro-N-((4,4-difluoro-1-hydroxycyclohexyl)methyl)-3-(tetrahydro-2H-pyran-4-yl)indolizine-1-carboxamide] | 10 to 100 |
| O=C(NCC1CCC(F)(F)CC1)c1cc(C2(O)COC2)n2cccc(Cl)c12 [Compound 58, 8-Chloro-3-(3-hydroxy-oxetan-3-yl)-indolizine-1-carboxylic acid (4,4-difluoro-cyclohexylmethyl)-amide] | 101 to 500 |
| O=C(NCC1(O)CCCC(F)(F)C1)c1cc(CCO)n2cccc(Cl)c12 (centres unmarked) [Compound 68, 8-Chloro-3-(2-hydroxy-ethyl)-indolizine-1-carboxylic Acid (3,3-difluoro-1-hydroxy-cyclohexylmethyl)-amide] | 10 to 100 |
| O=C(NCC1(O)CCCC(C(F)(F)F)C1)c1cc(C2CCOC2)n2cccc(Cl)c12 (centres unmarked) [Compound 74, 8-chloro-N-((1-hydroxy-3-(trifluoromethyl)cyclohexyl)methyl)-3-(tetrahydrofuran-3-yl)indolizine-1-carboxamide] | > 1000 |
| CC(CO)c1cc(C(=O)NCC2CCC(F)(F)CC2)c2c(Cl)cccn12 (centres unmarked) [Compound 75, 8-Chloro-3-(2-hydroxy-1-methyl-ethyl)-indolizine-1-carboxylic Acid (4,4-difluoro-cyclohexylmethyl)-amide] | 10 to 100 |

biological target: T1, P2X7; assay: IL-1β release assay in THP-1 cells (sandwich ELISA, BzATP-stimulated); assay type: cell-based; design: endogenous in cells; host or cells: THP-1 cells (PMA-differentiated, LPS-primed); conditions: LPS primed, 0.8 mM BzATP, mature IL-1β release, read-out: hTHP-1/IL-ib IC50
Experimental: IL-1β release assay: The activation of P2X7 by ATP leads to a fast transient activation of cells resulting in influx of Ca^2+ followed by conversion of pro-IL-1β to active IL-1β. The functional activity of P2X7 compounds was measured by the release of mature IL-1β in the culture medium of THP-1 cells, detected by sandwich ELISA. Cells were maintained in complete growth medium (RPMI 1640+10% HI-FCS+2 mM L-glutamine+1× PS). […] THP-1 cells were harvested from the flask in 50 ml by centrifugation for 3 min at 100 g. The cells were resuspended to 2×10^5 cells/ml in medium supplemented with 0.5 μM PMA and incubated. The cells were washed and resuspended to 1.5×10^5 cells/ml in medium complemented with 10 ng/ml LPS, and the cells were primed for 4 h at 37° C., 5% CO2. After addition of 20 μL of prediluted test compounds, blank, standard and control reagents, cells were incubated for a further 20 min at 37° C. and stimulated with 0.8 mM BzATP for 30 minutes. The cells were centrifuged, supernatant was collected and the presence of mature IL-1β was detected using Dual human IL-1b kit following manufacturer's instruction. The tetrahydrobenzodiazepine analogs effectively modulated the activity of P2X7 in the cells as measured by the levels of pro-inflammatory cytokine IL-1β, which is released by the activation of P2X7 receptor.

| Structure (SMILES) | IC50 [nM] |
| --- | --- |
| COCCc1cc(C(=O)NCC2(O)CCCC(F)(F)C2)c2c(Cl)cccn12 (stereo in doubt) [Compound 63, 8-Chloro-3-(2-methoxy-ethyl)-indolizine-1-carboxylic Acid ((S)-3,3-difluoro-1-hydroxy-cyclohexylmethyl)-amide] | < 10 |
| COCCc1cc(C(=O)NCC2CCCCCC2)c2c(Cl)cccn12 [Compound 1, 8-chloro-N-(cycloheptylmethyl)-3-(2-methoxyethyl)indolizine-1-Carboxamide] | 101 to 500 |
| COCCc1cc(C(=O)NCC2CCCC3(CC3)C2)c2c(Cl)cccn12 (centres unmarked) [Compound 2, 8-chloro-3-(2-methoxyethyl)-N-(spiro[2.5]octan-5-ylmethyl)indolizine-1-carboxamide] | 10 to 100 |
| COCCc1cc(C(=O)NCCC2(O)CCCC2)c2c(Cl)cccn12 [Compound 59, 8-chloro-N-(2-(1-hydroxycyclopentyl)ethyl)-3-(2-methoxyethyl)indolizine-1-carboxamide] | > 1000 |
